The results in this text go back to patent US9469617B2, “Molecules having certain pesticidal utilities, and intermediates, compositions, and processes related thereto” (priority 2014, dated 2016).

Common to all, as to type: in vivo
The subject of data set [1] is Green Peach Aphid (GPA) (Myzus persicae). Put plainly: Bioassay on Green Peach Aphid (GPA), foliar spray on cabbage seedlings. Particulars: 72 h, Table ABC, 200 ppm foliar spray on cabbage seedlings, graded after three days, Abbott corrected % control, read-out: GPA % Control (or Mortality) rating. How it is done:
Certain molecules disclosed in this document were tested against GPA using procedures described in the following example. In the reporting of the results, the “GPA & YFM Rating Table” was used (See Table Section).
Cabbage seedlings grown in 3-inch pots, with 2-3 small (3-5 cm) true leaves, were used as test substrate. The seedlings were infested with 20-50 GPA (wingless adult and nymph stages) one day prior to chemical application. Four pots with individual seedlings were used for each treatment. Test compounds (2 mg) were dissolved in 2 mL of acetone/MeOH (1:1) solvent, forming stock solutions of 1000 ppm test compound. The stock solutions were diluted 5× with 0.025% Tween 20 in water to obtain the solution at 200 ppm test compound. A hand-held aspirator-type sprayer was used for spraying a solution to both sides of […] leaves until runoff. Reference plants (solvent check) were sprayed with the diluent only containing 20% by volume of acetone/MeOH (1:1) solvent. Treated plants were held in a holding room for three days at approximately 25° C. and ambient relative humidity (RH) prior to grading. Evaluation was conducted by counting the number of live aphids per plant under a microscope. Percent Control was measured by using Abbott's correction formula (W. S. Abbott, “A Method of Computing the Effectiveness of an Insecticide” J. Econ. Entomol. 18 (1925), pp. 265-267) as follows. Corrected % Control=100*(X−Y)/X where X=No. of live aphids on solvent check plants and Y=No. of live aphids on treated plants. The results are indicated in the table entitled “Table ABC: Assay Results” and “Table ABCD: Assay Results” (See Table Section).

Data set [2] has as its system Beet Armyworm (BAW) (Spodoptera exigua). Nature of the data set: Bioassay on Beet Armyworm (BAW), 128-well diet tray assay. To be noted: 168 h, Table ABC, 50 μg/cm^2 on artificial diet, second instar larvae, five to seven days, 25° C., read-out: BAW % Control (or Mortality) rating. A digest of the protocol:
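Artificial diet was surface-treated with 50 μg/cm^2 compound in 90:10 acetone-water and dried, then infested with one to five second-instar larvae per well. Trays were held 5–7 days at 25° C, 14:10 light-dark. Percent mortality was averaged over eight wells.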

The subject of data set [3] is Yellow Fever Mosquito (YFM) (Aedes aegypti). Nature of the data set: Bioassay on Yellow Fever Mosquito (YFM) larvae, 96-well plate. Particulars: Table ABC; about 1 day-old larvae, master plate 4000 ppm in DMSO diluted, scored on mortality after 3 days. In short, it runs like this:
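Compounds from 4000 ppm DMSO master solutions, diluted in 90:10 water:acetone, dispensed into wells and infested with about 1-day-old larvae in liver-powder water. Held covered at room temperature for 3 days, then each well scored for mortality; 6 replicate plates per master.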

In data set [4] the test system is Cabbage Looper (CL) (Trichoplusia ni). Put plainly: Bioassay on Cabbage Looper (CL), 128-well diet tray assay. To be noted: 168 h, Table ABC, 50 μg/cm^2 on artificial diet, second instar larvae, five to seven days, 25° C., read-out: CL % Control (or Mortality) rating. In short, it runs like this: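 Second-instar larvae (one to five per well) placed on artificial diet treated with 50 μg/cm^2 compound in 90:10 acetone-water, dried, eight wells per compound. Held at 25 °C, 14:10 light-dark for five to seven days; percent mortality per well, averaged over the eight wells.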

A word on the mortality: it is the share of the test organisms that died. With `CC1S/C(=N\C(=O)NC2Cc3ccc(-c4ncn(-c5ccc(OC(F)(F)F)cc5)n4)cc3C2)N(c2ccccc2C(C)C)C1=O` (stereo not shown) [FA2, (Z)-1-(3-(2-isopropylphenyl)-5-methyl-4-oxothiazolidin-2-ylidene)-3-(5-(1-(4-(trifluoromethoxy)phenyl)-1H-1,2,4-triazol-3-yl)-2,3-dihydro-1H-inden-2-yl)urea], the mortality at 200 ppm in data set [1] was 0 to 80%. In addition, the mortality at 50 µg/cm2 in data set [2] and in data set [4] was 50 to 100% each time. The “YFM % Control (or Mortality) rating” value in data set [3] is “A (80-100)”.
